# Target: T1, NTCP (Homo sapiens, UniProt Q14973)
# T1 sequence (Q14973 1-349): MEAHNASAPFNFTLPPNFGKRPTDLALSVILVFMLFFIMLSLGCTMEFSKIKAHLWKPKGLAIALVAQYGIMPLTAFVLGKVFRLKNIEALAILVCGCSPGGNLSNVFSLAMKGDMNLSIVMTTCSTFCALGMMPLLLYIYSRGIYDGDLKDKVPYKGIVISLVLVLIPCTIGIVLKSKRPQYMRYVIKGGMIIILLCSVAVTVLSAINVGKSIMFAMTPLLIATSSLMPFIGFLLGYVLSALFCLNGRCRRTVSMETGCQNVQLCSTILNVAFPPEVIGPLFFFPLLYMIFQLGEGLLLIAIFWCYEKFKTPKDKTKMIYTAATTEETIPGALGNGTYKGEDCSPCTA
# Assay: [3H]-TCA uptake assay (NTCP inhibition)
# Format: cell-based
# Conditions: IC50, given as a range, marked * (asterisk not explained)
# Outline: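 Read-out is liquid scintillation counting of Triton X-100 lysates after 15 min, 37° C uptake of 1 μM [3H]-taurocholate in Na+ Ringer's buffer (145 mM Na). Beforehand, PTH and HepG2-NTCP cells had 24 h in PMM for NTCP induction and 2 h of compound or DMSO treatment.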
row,SMILES,IC50
1,CCC1NC(=O)C(C2OC(Oc3cccc(OC(C)c4ccccc4)c3)CC2C)N(C)C(=O)C(C(C)C)N(C)C(=O)C(CC(C)C)N(C)C(=O)C(CC(C)C)N(C)C(=O)C(C)NC(=O)C(C)NC(=O)C(CC(C)C)N(C)C(=O)C(C(C)C)NC(=O)C(CC(C)C)N(C)C(=O)CN(C)C1=O (stereo not drawn) [Compound 34A-o],1000 to 100000 nM
2,CCC1NC(=O)C(C2OC(Oc3cccc(OCCc4ccccc4)c3)CC2C)N(C)C(=O)C(C(C)C)N(C)C(=O)C(CC(C)C)N(C)C(=O)C(CC(C)C)N(C)C(=O)C(C)NC(=O)C(C)NC(=O)C(CC(C)C)N(C)C(=O)C(C(C)C)NC(=O)C(CC(C)C)N(C)C(=O)CN(C)C1=O (stereo not drawn) [Compound 35A-o],1000 to 100000 nM
3,CCC1NC(=O)C(C2OC(Oc3c(OC)cccc3OC)CC2C)N(C)C(=O)C(C(C)C)N(C)C(=O)C(CC(C)C)N(C)C(=O)C(CC(C)C)N(C)C(=O)C(C)NC(=O)C(C)NC(=O)C(CC(C)C)N(C)C(=O)C(C(C)C)NC(=O)C(CC(C)C)N(C)C(=O)CN(C)C1=O (stereo not drawn) [Compound 36A-o],1000 to 100000 nM
4,CCC1NC(=O)C(C2OC(Oc3ccc(OC)c(OC)c3)CC2C)N(C)C(=O)C(C(C)C)N(C)C(=O)C(CC(C)C)N(C)C(=O)C(CC(C)C)N(C)C(=O)C(C)NC(=O)C(C)NC(=O)C(CC(C)C)N(C)C(=O)C(C(C)C)NC(=O)C(CC(C)C)N(C)C(=O)CN(C)C1=O (stereo not drawn) [Compound 37A-o],1000 to 100000 nM
5,"CCC1NC(=O)C(C2OC(Oc3cc(OC)cc(OC)c3)CC2C)N(C)C(=O)C(C(C)C)N(C)C(=O)C(CC(C)C)N(C)C(=O)C(CC(C)C)N(C)C(=O)C(C)NC(=O)C(C)NC(=O)C(CC(C)C)N(C)C(=O)C(C(C)C)NC(=O)C(CC(C)C)N(C)C(=O)CN(C)C1=O [Compound 38A-o, [2-((2R,3R)-5-(3,5-dimethoxphenoxy)-3-methyltetrahydrofuran-2-yl)-2-(methylamino)acetic acid]^1-cyclosporin A]",1000 to 100000 nM
6,CCC1NC(=O)C(C2OC(Oc3ccc(Cl)c(OC)c3)CC2C)N(C)C(=O)C(C(C)C)N(C)C(=O)C(CC(C)C)N(C)C(=O)C(CC(C)C)N(C)C(=O)C(C)NC(=O)C(C)NC(=O)C(CC(C)C)N(C)C(=O)C(C(C)C)NC(=O)C(CC(C)C)N(C)C(=O)CN(C)C1=O (stereo not drawn) [Compound 40A-o],1000 to 100000 nM
7,CCOc1cc(OC2CC(C)C(C3C(=O)NC(CC)C(=O)N(C)CC(=O)N(C)C(CC(C)C)C(=O)NC(C(C)C)C(=O)N(C)C(CC(C)C)C(=O)NC(C)C(=O)NC(C)C(=O)N(C)C(CC(C)C)C(=O)N(C)C(CC(C)C)C(=O)N(C)C(C(C)C)C(=O)N3C)O2)ccc1Cl (stereo not drawn) [Compound 41A-o],1000 to 100000 nM
8,CCCOc1cc(OC2CC(C)C(C3C(=O)NC(CC)C(=O)N(C)CC(=O)N(C)C(CC(C)C)C(=O)NC(C(C)C)C(=O)N(C)C(CC(C)C)C(=O)NC(C)C(=O)NC(C)C(=O)N(C)C(CC(C)C)C(=O)N(C)C(CC(C)C)C(=O)N(C)C(C(C)C)C(=O)N3C)O2)ccc1Cl (stereo not drawn) [Compound 42A-o],1000 to 100000 nM
9,CCC1NC(=O)C(C2OC(Oc3ccc(Cl)c(OCC4CCOCC4)c3)CC2C)N(C)C(=O)C(C(C)C)N(C)C(=O)C(CC(C)C)N(C)C(=O)C(CC(C)C)N(C)C(=O)C(C)NC(=O)C(C)NC(=O)C(CC(C)C)N(C)C(=O)C(C(C)C)NC(=O)C(CC(C)C)N(C)C(=O)CN(C)C1=O (stereo not drawn) [Compound 43A-o],1000 to 100000 nM
10,CCC1NC(=O)C(C2OC(Oc3ccc(Cl)c(OCc4ccccc4)c3)CC2C)N(C)C(=O)C(C(C)C)N(C)C(=O)C(CC(C)C)N(C)C(=O)C(CC(C)C)N(C)C(=O)C(C)NC(=O)C(C)NC(=O)C(CC(C)C)N(C)C(=O)C(C(C)C)NC(=O)C(CC(C)C)N(C)C(=O)CN(C)C1=O (stereo not drawn) [Compound 44A-o],1000 to 100000 nM

# Same assay, conditions: IC50, given as a range; assay not given
row,SMILES,IC50
1,"CCC1NC(=O)C(C2OC(Sc3c(OC)cccc3OC)CC2C)N(C)C(=O)C(C(C)C)N(C)C(=O)C(CC(C)C)N(C)C(=O)C(CC(C)C)N(C)C(=O)C(C)NC(=O)C(C)NC(=O)C(CC(C)C)N(C)C(=O)C(C(C)C)NC(=O)C(CC(C)C)N(C)C(=O)CN(C)C1=O [Compound 36A, [2-((2R,3R)-5-(2,6-dimethoxyphenylthio)-3-methyltetrahydrofuran-2-yl)-2-(methylamino)acetic acid]^1-cyclosporin A]",1000 to 10000 nM

# Same assay, conditions: given as a range; assay not given
row,SMILES,IC50
1,"CCC1NC(=O)C(C2OC(Sc3cccc(OC(C)c4ccccc4)c3)CC2C)N(C)C(=O)C(C(C)C)N(C)C(=O)C(CC(C)C)N(C)C(=O)C(CC(C)C)N(C)C(=O)C(C)NC(=O)C(C)NC(=O)C(CC(C)C)N(C)C(=O)C(C(C)C)NC(=O)C(CC(C)C)N(C)C(=O)CN(C)C1=O [Compound 34A, [2-((2R,3R)-3-methyl-5-(3-(1-phenylethoxy)phenylthio)tetrahydrofuran-2-yl)-2-(methylamino)acetic acid]^1-cyclosporin A]",1 to 1000 nM
2,"CCC1NC(=O)C(C2OC(Sc3cccc(OCCc4ccccc4)c3)CC2C)N(C)C(=O)C(C(C)C)N(C)C(=O)C(CC(C)C)N(C)C(=O)C(CC(C)C)N(C)C(=O)C(C)NC(=O)C(C)NC(=O)C(CC(C)C)N(C)C(=O)C(C(C)C)NC(=O)C(CC(C)C)N(C)C(=O)CN(C)C1=O [Compound 35A, [2-((2R,3R)-3-methyl-5-(3-phenethoxyphenylthio)tetrahydrofuran-2-yl)-2-(methylamino)acetic acid]^1-cyclosporin A]",1 to 1000 nM
3,"CCC1NC(=O)C(C2OC(Sc3ccc(OC)c(OC)c3)CC2C)N(C)C(=O)C(C(C)C)N(C)C(=O)C(CC(C)C)N(C)C(=O)C(CC(C)C)N(C)C(=O)C(C)NC(=O)C(C)NC(=O)C(CC(C)C)N(C)C(=O)C(C(C)C)NC(=O)C(CC(C)C)N(C)C(=O)CN(C)C1=O [Compound 37A, [2-((2R,3R)-5-(3,4-dimethoxyphenylthio)-3-methyltetrahydrofuran-2-yl)-2-(methylamino)acetic acid]^1-cyclosporin A]",1 to 1000 nM
4,"CCC1NC(=O)C(C2OC(Sc3cc(OC)cc(OC)c3)CC2C)N(C)C(=O)C(C(C)C)N(C)C(=O)C(CC(C)C)N(C)C(=O)C(CC(C)C)N(C)C(=O)C(C)NC(=O)C(C)NC(=O)C(CC(C)C)N(C)C(=O)C(C(C)C)NC(=O)C(CC(C)C)N(C)C(=O)CN(C)C1=O [Compound 38A, [2-((2R,3R)-5-(3,5-dimethoxyphenylthio)-3-methyltetrahydrofuran-2-yl)-2-(methylamino)acetic acid]^1-cyclosporin A]",1 to 1000 nM
5,"CCOc1cc(OCC)cc(SC2CC(C)C(C3C(=O)NC(CC)C(=O)N(C)CC(=O)N(C)C(CC(C)C)C(=O)NC(C(C)C)C(=O)N(C)C(CC(C)C)C(=O)NC(C)C(=O)NC(C)C(=O)N(C)C(CC(C)C)C(=O)N(C)C(CC(C)C)C(=O)N(C)C(C(C)C)C(=O)N3C)O2)c1 [Compound 39A, [2-((2R,3R)-5-(3,5-diethoxyphenylthio)-3-methyltetrahydrofuran-2-yl)-2-(methylamino)acetic acid]^1-cyclosporin A]",1 to 1000 nM
6,"CCC1NC(=O)C(C2OC(Sc3ccc(Cl)c(OC)c3)CC2C)N(C)C(=O)C(C(C)C)N(C)C(=O)C(CC(C)C)N(C)C(=O)C(CC(C)C)N(C)C(=O)C(C)NC(=O)C(C)NC(=O)C(CC(C)C)N(C)C(=O)C(C(C)C)NC(=O)C(CC(C)C)N(C)C(=O)CN(C)C1=O [Compound 40A, [2-((2R,3R)-5-(4-chloro-3-methoxyphenylthio)-3-methyltetrahydrofuran-2-yl)-2-(methylamino)acetic acid]^1-cyclosporin A]",1 to 1000 nM
7,"CCOc1cc(SC2CC(C)C(C3C(=O)NC(CC)C(=O)N(C)CC(=O)N(C)C(CC(C)C)C(=O)NC(C(C)C)C(=O)N(C)C(CC(C)C)C(=O)NC(C)C(=O)NC(C)C(=O)N(C)C(CC(C)C)C(=O)N(C)C(CC(C)C)C(=O)N(C)C(C(C)C)C(=O)N3C)O2)ccc1Cl [Compound 41A, [2-((2R,3R)-5-(4-chloro-3-ethoxyphenylthio)-3-methyltetrahydrofuran-2-yl)-2-(methylamino)acetic acid]^1-cyclosporin A]",1 to 1000 nM
8,"CCCOc1cc(SC2CC(C)C(C3C(=O)NC(CC)C(=O)N(C)CC(=O)N(C)C(CC(C)C)C(=O)NC(C(C)C)C(=O)N(C)C(CC(C)C)C(=O)NC(C)C(=O)NC(C)C(=O)N(C)C(CC(C)C)C(=O)N(C)C(CC(C)C)C(=O)N(C)C(C(C)C)C(=O)N3C)O2)ccc1Cl [Compound 42A, [2-((2R,3R)-5-(4-chloro-3-propoxyphenylthio)-3-methyltetrahydrofuran-2-yl)-2-(methylamino)acetic acid]^1-cyclosporin A]",1 to 1000 nM
9,"CCC1NC(=O)C(C2OC(Sc3ccc(Cl)c(OCC4CCOCC4)c3)CC2C)N(C)C(=O)C(C(C)C)N(C)C(=O)C(CC(C)C)N(C)C(=O)C(CC(C)C)N(C)C(=O)C(C)NC(=O)C(C)NC(=O)C(CC(C)C)N(C)C(=O)C(C(C)C)NC(=O)C(CC(C)C)N(C)C(=O)CN(C)C1=O [Compound 43A, [2-((2R,3R)-5-(4-chloro-3-((tetrahydro-2H-pyran-4-yl)methoxy)phenylthio)-3-methyltetrahydrofuran-2-yl)-2-(methylamino)acetic acid]^1-cyclosporin A]",1 to 1000 nM
10,"CCC1NC(=O)C(C2OC(Sc3ccc(Cl)c(OCc4ccccc4)c3)CC2C)N(C)C(=O)C(C(C)C)N(C)C(=O)C(CC(C)C)N(C)C(=O)C(CC(C)C)N(C)C(=O)C(C)NC(=O)C(C)NC(=O)C(CC(C)C)N(C)C(=O)C(C(C)C)NC(=O)C(CC(C)C)N(C)C(=O)CN(C)C1=O [Compound 44A, [2-((2R,3R)-5-(3-(benzyloxy)-4-chlorophenylthio)-3-methyltetrahydrofuran-2-yl)-2-(methylamino)acetic acid]^1-cyclosporin A]",1 to 1000 nM

# — patent US10961231B2, “NTCP inhibitors” (National Institute of Biological Sciences, Beijing, priority 2018, dated 2021)
